This note sets out measurements from patent US20240116985A1, “STAPLED PEPTIDES AND METHODS THEREOF” (priority 2020, published 2024).

Series [1] addresses T1, full-length B-Catenin (Uniprot ID P35222) (Homo sapiens, UniProt P35222).
T1 construct: 65 nM full-length B-Catenin (Uniprot ID P35222)
T1 sequence (P35222 1-781): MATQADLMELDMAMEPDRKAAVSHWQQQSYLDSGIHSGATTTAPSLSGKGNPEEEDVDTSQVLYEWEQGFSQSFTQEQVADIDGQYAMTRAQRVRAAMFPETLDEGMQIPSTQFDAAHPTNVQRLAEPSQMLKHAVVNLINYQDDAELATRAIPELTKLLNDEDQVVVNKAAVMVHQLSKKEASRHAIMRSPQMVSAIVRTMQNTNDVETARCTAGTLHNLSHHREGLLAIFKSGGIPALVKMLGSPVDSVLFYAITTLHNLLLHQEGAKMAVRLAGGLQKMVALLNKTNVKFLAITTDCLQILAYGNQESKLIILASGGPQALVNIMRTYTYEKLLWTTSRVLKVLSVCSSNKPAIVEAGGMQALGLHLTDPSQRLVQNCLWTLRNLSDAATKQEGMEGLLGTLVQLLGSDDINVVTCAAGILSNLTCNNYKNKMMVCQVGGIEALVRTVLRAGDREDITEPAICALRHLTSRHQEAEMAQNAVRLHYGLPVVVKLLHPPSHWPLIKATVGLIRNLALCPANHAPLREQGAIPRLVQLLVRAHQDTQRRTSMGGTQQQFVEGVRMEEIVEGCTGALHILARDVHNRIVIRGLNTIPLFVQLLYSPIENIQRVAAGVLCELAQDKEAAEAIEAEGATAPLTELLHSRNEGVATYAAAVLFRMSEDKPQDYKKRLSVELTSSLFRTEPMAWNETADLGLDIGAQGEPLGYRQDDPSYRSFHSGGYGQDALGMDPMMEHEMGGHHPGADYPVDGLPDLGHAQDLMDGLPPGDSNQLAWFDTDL
In words: Alphascreen binding assay (beta-catenin / biotin-TCF4 10-53). The gist of the method: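 AlphaScreen (Ni-chelate beads) competition in 50 mM Tris pH 8.0, 250 mM NaCl with detergents and 0.1% BSA. Peptide titrated 10 uM–5 nM against 65 nM human β-catenin bound to 10 nM biotinylated TCF4 10-53, 15 min then 60 min with beads, both at 20 °C; 1:1 Hill-slope fit.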

The next series in a line: CHI Log D procedure. The format is physicochemical. To be noted: for CHI Log D: pH 7.4.

For `CC(=O)N[C@@H](Cc1ccccc1)C(=O)N[C@@H](CC(=O)O)C(=O)N[C@@H](C)C(=O)N[C@]1(C)CCCCCCC=CCOC(=O)N2CC[C@@](C(=O)N[C@@H](Cc3ccccc3)C(=O)N[C@@H](Cc3c[nH]c4ccccc34)C(=O)N[C@@H](CCC(N)=O)C(N)=O)(C2)NC(=O)[C@H]([C@@H](C)O)NC(=O)[C@H](Cc2ccccc2)NC(=O)[C@H](C)NC(=O)[C@H](C)NC(=O)[C@H](CC(=O)O)NC(=O)[C@H](CC(=O)O)NC1=O` [I-223, Ac-Phe-Asp-Ala-R8-Asp-Asp-Ala-Ala-Phe-Thr-PyrS-Phe-Trp-Gln-NH2], the EC50 (in general, the concentration at which the effect is half-maximal) in series [1] came to 4.12 µM. Also, in “CHI Log D procedure”, the “CHI Log D” value is listed as 1.401.
In series [1], `CC(=O)N[C@@H](Cc1ccccc1)C(=O)N[C@@H](CC(=O)O)C(=O)N[C@@H](C)C(=O)N[C@]1(C)CCCCCCC=CCOC(=O)N2CC[C@@](C(=O)N[C@@H](Cc3ccccc3)C(=O)N[C@@H](Cc3c[nH]c4ccccc34)C(=O)N[C@@H](CCC(N)=O)C(N)=O)(C2)NC(=O)[C@H]([C@@H](C)O)NC(=O)[C@H](Cc2ccccc2)NC(=O)[C@H](C)NC(=O)[C@H](C)NC(=O)[C@H](CC(=O)O)NC(=O)[C@H](CC(=O)O)NC1=O` [I-224, Ac-Phe-Asp-Ala-R8-Asp-Asp-Ala-Ala-Phe-Thr-PyrS-Phe-Trp-Gln-NH2] yielded an EC50 of 4.12 µM. Also, the “CHI Log D” value in “CHI Log D procedure” came to 1.401.
`CC(=O)N[C@@H](Cc1ccccc1)C(=O)N[C@@H](CC(=O)O)C(=O)N[C@@H](C)C(=O)N[C@]1(C)CCCCCCC=CCOC(=O)N2CC[C@@](C(=O)N[C@@H](Cc3c(F)c(F)c(F)c(F)c3F)C(=O)N[C@@H](Cc3c[nH]c4ccccc34)C(=O)N[C@@H](CCC(N)=O)C(N)=O)(C2)NC(=O)[C@H](C(C)C)NC(=O)[C@H](Cc2ccccc2)NC(=O)[C@H](C)NC(=O)[C@H](C)NC(=O)[C@H](CC(=O)O)NC(=O)[C@H](CC(=O)O)NC1=O` [I-225, Ac-Phe-Asp-Ala-R8-Asp-Asp-Ala-Ala-Phe-Val-PyrS-Pff-Trp-Gln-NH2] gave a half-maximal effective concentration (EC50) in series [1] of 7.63 µM. Further, in “CHI Log D procedure”, the “CHI Log D” value amounted to 1.497.
The corresponding values for `CC(=O)N[C@@H](Cc1ccccc1)C(=O)N[C@@H](CC(=O)O)C(=O)N[C@@H](C)C(=O)N[C@]1(C)CCCCCCC=CCOC(=O)N2CC[C@@](C(=O)N[C@@H](Cc3c(F)c(F)c(F)c(F)c3F)C(=O)N[C@@H](Cc3c[nH]c4ccccc34)C(=O)N[C@@H](CCC(N)=O)C(N)=O)(C2)NC(=O)[C@H](C(C)C)NC(=O)[C@H](Cc2ccccc2)NC(=O)[C@H](C)NC(=O)[C@H](C)NC(=O)[C@H](CC(=O)O)NC(=O)[C@H](CC(=O)O)NC1=O` [I-226, Ac-Phe-Asp-Ala-R8-Asp-Asp-Ala-Ala-Phe-Val-PyrS-Pff-Trp-Gln-NH2] are 7.63 µM and 1.497.
For `CC(=O)N1CCC[C@]12CC=CCCCC1(CCCC=CCCCCCC[C@@](C)(C(=O)N[C@@H](Cc3ccccc3)C(=O)N[C@@H](Cc3c[nH]c4ccccc34)C(=O)N[C@@H](CCC(N)=O)C(N)=O)NC(=O)[C@H](C(C)C)NC(=O)[C@H](Cc3ccccc3)NC(=O)[C@H](C)NC(=O)[C@H](C)NC(=O)[C@H](CCC(=O)O)NC(=O)[C@H](Cc3ccccn3)NC1=O)NC(=O)[C@H](C)NC(=O)[C@H](CC(=O)O)NC2=O` (stereo partly drawn) [I-229, Ac-PL3-Asp-Ala-B5-2pyrA-Glu-Ala-Ala-Phe-Val-S8-Phe-Trp-Gln-NH2], it took 5.81 µM to reach a half-maximal effect in series [1] (EC50). Also, in the series “CHI Log D procedure”, the “CHI Log D” value is given as 3.044.
In series [1], `CC(=O)N1CCC[C@]12CC=CCCCC1(CCCC=CCCCCCC[C@@](C)(C(=O)N[C@@H](Cc3ccccc3)C(=O)N[C@@H](Cc3c[nH]c4ccccc34)C(=O)N[C@@H](CCC(N)=O)C(N)=O)NC(=O)[C@H](C(C)C)NC(=O)[C@H](Cc3ccccc3)NC(=O)[C@H](C)NC(=O)[C@H](C)NC(=O)[C@H](Cc3csc4ccccc34)NC(=O)[C@H](CC(=O)O)NC1=O)NC(=O)[C@H](C)NC(=O)[C@H](CC(=O)O)NC2=O` (stereo partly drawn) [I-231, Ac-PL3-Asp-Ala-B5-Asp-BztA-Ala-Ala-Phe-Val-S8-Phe-Trp-Gln-NH2] came in with an EC50 of 6.53 µM. Moreover, the chromatographic logD – broadly, lipophilicity estimated from chromatographic retention – in the series “CHI Log D procedure” (pH 7.4, CHI Log D) is 3.02.
